This is an account of results in patent publication US4540700A, “Treatment of diabetic complications with certain spiro-imidazolidine-diones” (Alcon Laboratories, Inc., priority 1984, dated 1985).

Read-outs that look alike come from different tables or passages of the source.

Holding throughout (type): biochemical
One assay concerns the target Rat Aldose Reductase (Rattus norvegicus, UniProt P07943). The assay is described as follows: Rat Aldose Reductase Inhibition. The note with it: for inhibition at 100 µM: 10^-4, read-out: In vitro Aldose Reductase Inhibition; for inhibition at 10 µM: 10^-5, read-out: In vitro Aldose Reductase Inhibition; for inhibition at 1 µM: 10^-6, read-out: In vitro Aldose Reductase Inhibition; for inhibition at 0.1 µM: 10^-7, read-out: In vitro Aldose Reductase Inhibition; for inhibition at 0.01 µM: 10^-8, read-out: In vitro Aldose Reductase Inhibition. From the text:
Biophysical Chemistry, 8 (1978) 81-85; P. F. Kador, L. O. Merola and J. H
Kinoshita Documenta Ophthamologica, 18 (1979) 117.

A further assay has as its target Human Aldose Reductase (Homo sapiens, UniProt P15121). Briefly: Human Aldose Reductase Inhibition.
The next assay relates to aldose reductase. Briefly: aldose reductase inhibition of spiro-xanthene-imidazolidines (in words).
The mark [1] stands for this setting: read-out: In vitro Aldose Reductase Inhibition.
Setting [2] is: 10^-4, human, read-out: In vitro Aldose Reductase Inhibition.
Where [3] appears, read: 10^-5, human, read-out: In vitro Aldose Reductase Inhibition.
The mark [4] stands for this setting: 10^-6, human, read-out: In vitro Aldose Reductase Inhibition.

`CS(=O)(=O)c1ccc2c(c1)C1(NC(=O)NC1=O)c1ccccc1-2` (racemic) [R, dl-Spiro-(2-methylsulfonylfluoren-9,4'-imidazolidine)-2',5'-dione] had an IC50 against Rat Aldose Reductase of 5000 nM.
In the case of `Cc1cccc2c1C1(NC(=O)NC1=O)c1ccccc1-2` (racemic) [K, dl-Spiro-[1-methylfluoren-9,4'-imidazolidine]-2',5'-dione], on Rat Aldose Reductase, the inhibition at 100 µM was 96%, the inhibition at 10 µM came to 85%, the inhibition at 1 µM amounted to 47% and the inhibition at 0.1 µM came to 6%.
For the compound `O=C1NC(=O)C2(N1)c1cc(Br)ccc1-c1ccc(Br)cc12` [F, Spiro-[2,7-dibromofluoren-9,4'-imidazolidine]-2',5'-dione], at Rat Aldose Reductase, the inhibition at 10 µM came out at 94%, the inhibition at 1 µM was determined as 76%, the inhibition at 0.1 µM came to 55% and the inhibition at 0.01 µM is 12%.
Compound `O=C1NC(=O)C2(N1)c1ccccc1-c1ccccc12` [A, Spiro-(fluoren-9,4'-imidazolidine)-2',5'-dione] returned an IC50 against Human Aldose Reductase (human) of 1200 nM. Besides, at Human Aldose Reductase (setting [1]), the inhibition at 0.1 µM is 13%, the inhibition at 1 µM worked out at 49%, the inhibition at 10 µM is 84% and the inhibition at 100 µM is 89%.
Take `O=C1NC(=O)C2(N1)c1ccccc1-c1ccc(Br)cc12` (racemic) [E, dl-Spiro-[2-bromofluoren-9,4'-imidazolidine]-2', 5'-dione]: on Rat Aldose Reductase, the inhibition at 100 µM is 100%, the inhibition at 10 µM was 82%, the inhibition at 1 µM was determined as 62% and the inhibition at 0.1 µM is 33%. In addition, at Rat Aldose Reductase, the inhibition at 0.01 µM stood at 8%.
`O=C1NC(=O)C2(N1)c1ccccc1-c1cccc(F)c12` (racemic) [S, dl-Spiro-[1-fluorofluoren-9,4'-imidazolidine]-2',5'-dione]: on Rat Aldose Reductase, the IC50 amounted to 590 nM. That is a sub-micromolar value.
On to `O=C1NC(=O)C2(N1)c1ccccc1-c1ccc(C(=O)O)cc12` (racemic) [N, dl-Spiro-[2-carboxyfluoren-9,4'-imidazolidine]-2',5'-dione], for which, at Rat Aldose Reductase, the inhibition at 100 µM amounted to 89%, the inhibition at 10 µM amounted to 54% and the inhibition at 1 µM amounted to 0%.
Take `Nc1ccc2c(c1)C1(NC(=O)NC1=O)c1ccccc1-2` (racemic) [H, dl-Spiro-[2-aminofluoren-9,4'-imidazolidine]-2',5'-dione]: the inhibition at 100 µM at Human Aldose Reductase (setting [2]) was 43%. Besides, the inhibition at 10 µM at Human Aldose Reductase (setting [3]) was 31%. In addition, at Human Aldose Reductase (setting [4]), the inhibition at 1 µM came to 0%.
At Rat Aldose Reductase, `CSc1ccc2c(c1)C1(NC(=O)NC1=O)c1ccccc1-2` (racemic) [P, dl-Spiro-[2-methylthiofluoren-9,4'-imidazolidine]-2',5'-dione] had an IC50 of 420 nM.
Same read-out and setting: next, `C[S+]([O-])c1ccc2c(c1)C1(NC(=O)NC1=O)c1ccccc1-2` (racemic) [Q, Spiro-[2-(R,S)-methylsulfinylfluoren-9, (R,S)-4'-imidazolidine]-2',5'-dione]: 1700 nM.
Take `O=C1NC(=O)C2(N1)c1ccccc1-c1ccc([N+](=O)[O-])cc12` (racemic) [C, dl-Spiro-[2-nitrofluoren-9,4'-imidazolidine]-2',5'-dione]: the inhibition at 100 µM on Human Aldose Reductase (setting [2]) was 65%. Besides, the inhibition at 10 µM on Human Aldose Reductase (setting [3]) was found to be 20%. Also, the inhibition at 1 µM at Human Aldose Reductase (setting [4]) stood at 8%.
In the case of `O=C1NC(=O)C2(N1)c1ccccc1-c1ccc(I)cc12` (racemic) [J, dl-Spiro-[2-iodofluoren-9,4'-imidazolidine]-2',5'-dione], on Human Aldose Reductase (setting [2]), the inhibition at 100 µM stood at 94%. In addition, on Human Aldose Reductase (setting [3]), the inhibition at 10 µM came out at 88%. In addition, the inhibition at 1 µM on Human Aldose Reductase (setting [4]) is 77%. Also, the inhibition at 0.1 µM at Human Aldose Reductase (10^-7, human, read-out: In vitro Aldose Reductase Inhibition) was 39%. Also, the inhibition at 0.01 µM on Human Aldose Reductase (10^-8, human, read-out: In vitro Aldose Reductase Inhibition) is 0%.
Consider `Nc1cccc2c1-c1ccccc1C21NC(=O)NC1=O` (racemic) [G, dl-Spiro-[4-aminofluoren-9,4'-imidazolidine]-2',5'-dione], for which the inhibition at 100 µM at Human Aldose Reductase (setting [2]) was 50%. For the same compound, at Human Aldose Reductase (setting [3]), the inhibition at 10 µM is 28%. Also, the inhibition at 1 µM at Human Aldose Reductase (setting [4]) is 20%.
Compound `O=C1NC(=O)C2(N1)c1ccccc1-c1c(F)cccc12` (racemic) [U, dl-Spiro-[4-fluorofluoren-9,4'-imidazolidine]-2',5'-dione] yielded an IC50 against Rat Aldose Reductase of 460 nM.
Take `O=C1NC(=O)C2(CCOc3ccc(F)cc32)N1` (stereo not shown) [Sarges Resolved, dSpiro-(6-fluorochroman-4,4imidazolidine)-2',5dione, reference compound]: the “activity against human aldose reductase as compared to rat aldose reductase” value on Human Aldose Reductase (human vs rat) is on record as “one fourth”.
With `O=C1NC(=O)C2(N1)c1cc(Cl)ccc1-c1ccc(Cl)cc12` [Compound B, Spiro-[2,7-dichlorofluoren-9,4'-imidazolidine]-2',5'-dione], the “In vitro Aldose Reductase Inhibition” value was determined as 65 at Human Aldose Reductase (10^-4, human); 30 at Human Aldose Reductase (10^-5, human); 12 at Human Aldose Reductase (10^-6, human).
With `O=C1NC(=O)C2(N1)c1cc([N+](=O)[O-])ccc1-c1ccc([N+](=O)[O-])cc12` [Compound D, Spiro [2,7-dinitrofluoren-9,4'-imidazolidine]-2',5'-dione], at Human Aldose Reductase (setting [1]), the inhibition at 1 µM worked out at 20%, the inhibition at 10 µM is 76% and the inhibition at 100 µM turned out to be 100%.
For `Nc1ccc2c(c1)C1(NC(=O)NC1=O)c1cc(N)ccc1-2` [I, Spiro-[2,7-diaminofluoren-9,4'-imidazolidine]-2',5'-dione], the inhibition at 100 µM on Human Aldose Reductase (setting [2]) was found to be 50%. In addition, at Human Aldose Reductase (setting [3]), the inhibition at 10 µM is 25%. Besides, at Human Aldose Reductase (setting [4]), the inhibition at 1 µM was determined as 10%.
On to `O=C1NC(=O)C2(N1)c1cc(F)ccc1Oc1ccc(F)cc12` [spiro-(2,7-difluroxanthen-9,4'-imidazolidine)-2',5'-dione], for which the “activity as aldose reductase inhibitors relative to corresponding tetracyclic fluorene compounds” value with aldose reductase is “unexpectedly less active”.
On to `O=C1NC(=O)C2(N1)c1ccccc1Oc1ccccc12` [spiro-(xanthen-9,4'-imidazolidine)-2',5'-dione], for which the “activity as aldose reductase inhibitors relative to corresponding tetracyclic fluorene compounds” value in the assay on aldose reductase is reported as “unexpectedly less active”.
